Source: article PMC6943434, “Novel Homo-Bivalent and Polyvalent Compounds Based on Ligustrazine and Heterocyclic Ring as Anticancer Agents” (Molecules, 2019)
Read-outs that look alike come from different tables or passages of the source.

Legend:
[1] = test system: A549 (epithelial cancer cell line); test: MTT cell viability assay, A549; format: cell-based; conditions: Homo sapiens, 48 h, read-out: Antiproliferative Activity IC50 ± SEM, A549
Experimental: (§1) The tested cells were obtained from Shanghai Institute of Biochemistry and Cell Biology of the Chinese Academy of Sciences (Shanghai, China). HeLa and Hep G2 cell lines were cultured in Dulbecco’s modified Eagle’s medium (DMEM; gibco, Life Technologies, Carlsbad, CA, USA) supplemented with 10% fetal bovine serum (FBS; Biological Industries), 100 U/mL penicillin-streptomycin (PS; gibco, Life Technologies, Carlsbad, CA, USA). MCF-7 and A549 cell lines were maintained in RPMI-1640 media (gibco, Life Technologies, Carlsbad, CA, USA) supplemented with 10% FBS and 100 U/mL PS. FaDu cell lines were cultured in minimum essential medium (MEM; Gibco, Life Technologies, Carlsbad, CA, USA) supplemented with 10% FBS and 100 U/mL PS. MCF 10A cell lines were maintained in Mammary MEGM kit (Lonza/Clonetics) supplemented with 100 ng/mL cholera toxin (Sigma, Shanghai, China). Cell lines were grown at 37 °C in a humidified atmosphere of 5% CO2.
(§2) The growth-inhibitory effects against HeLa, Hep G2, MCF-7, FaDu, and A549 cancer cells and normal cell lines MCF 10A were determined by MTT assay. […] Cells were seeded in 96 well plates at a density of 1 × 10^4 cells per well and incubated for 24 h at 37 °C in a humidified atmosphere of 5% CO2. The cells were then incubated with various concentrations of drugs for 48 h in a 5% CO2 incubator at 37 °C. After treatment with 1 mg/mL 3-(4,5-dimethylthiazol-2-yl)-2,5-diphenyltetrazolium bromide (MTT) solution for 4 h, the formazan crystals were dissolved in 100 µL DMSO in each well. Plates were read on a microplate reader (Thermo Varioskan Flash 3001) at 490 nm. The experiment was performed in triplicate. The inhibitory concentration at 50% (IC50) was calculated based on concentration-inhibition relationships via regression using SPSS software (Version 17.0).

[2] = test system: MCF 10A (normal mammary epithelial cell); test: MTT cell viability assay, MCF 10A; format: cell-based; conditions: Homo sapiens, 48 h, normal cells, read-out: Antiproliferative Activity IC50 ± SEM, MCF 10A
[3] = test system: HeLa (cervical cancer cell line); test: MTT cell viability assay, HeLa; format: cell-based; conditions: Homo sapiens, 48 h, read-out: Antiproliferative Activity IC50 ± SEM, HeLa
Experimental: as §1, §2

[4] = test system: MCF-7 (breast cancer cell line); test: MTT cell viability assay, MCF-7; format: cell-based; conditions: Homo sapiens, MCF7, 48 h, read-out: Antiproliferative Activity IC50 ± SEM, MCF-7
Experimental: as §1, §2

[5] = test system: Hep G2 (hepatocarcinoma cell line); test: MTT cell viability assay, Hep G2; format: cell-based; conditions: Homo sapiens, HepG2, 48 h, read-out: Antiproliferative Activity IC50 ± SEM, Hep G2
Experimental: as §1, §2

[6] = test system: FaDu (head and neck squamous carcinoma cell line); test: MTT cell viability assay, FaDu; format: cell-based, human
Experimental: as §1, §2

[7] = Homo sapiens, FaDu, 48 h, MTT, 48 h; read-out: Antiproliferative Activity IC50 ± SEM, FaDu
[8] = MTT, 48 h; read-out: Antiproliferative Activity IC50 ± SEM, FaDu
[9] = SI = IC50 (MCF 10A)/IC50 (FaDu)

Row | Structure (SMILES) | IC50 [1] | IC50 [2] | IC50 [3] | IC50 [4] | IC50 [5] | IC50 [6, 7] | IC50 [6, 8] | SI: selectivity index [6, 9] | IC50 ([6]; Homo sapiens, FaDu; MTT, 48 h; read-out: Antiproliferative Activity IC50 ± SEM, FaDu)
1 | O=C(NCCCCCCCCCCNC(=O)c1ccccc1)c1ccccc1 [Compound 11e, N,N′-(Decane-1,10-Diyl)Dibenzamide] | 64.3 ± 3.46 µM | 80.5 ± 7.6 µM | > 100 µM | > 100 µM | > 100 µM | < 1 µM | 0.5 ± 0.06 µM | 161.08 | –
2 | COc1ccc(C(=O)NCCCCCCCCCCNC(=O)c2ccc(OC)c(OC)c2OC)c(OC)c1OC [Compound 35e, N,N′-(Decane-1,10-Diyl)Bis(2,3,4-Trimethoxybenzamide)] | > 20 µM | > 20 µM | > 20 µM | > 20 µM | > 20 µM | > 20 µM | – | – | –
3 | Cn1cc(C(=O)NCCCCCCCCCCNC(=O)c2cn(C)c3ccccc23)c2ccccc21 [Compound 23e, N,N′-(Decane-1,10-Diyl)Bis(1-Methyl-1H-Indole-3-Carboxamide)] | > 20 µM | > 20 µM | > 20 µM | > 20 µM | > 20 µM | < 1 µM | 0.638 ± 0.089 µM | >31.35 | –
4 | Cc1nc(C)c(C)nc1C [TMP, 2,3,5,6-tetramethylpyrazine, reference compound] | > 100 µM | > 100 µM | > 100 µM | > 100 µM | > 100 µM | > 100 µM | – | – | –
5 | Nc1cccc(C(=O)NCCCCCCCCCCNC(=O)c2cccc(N)c2)c1 [Compound 32e, N,N′-(Decane-1,10-Diyl)bis(3-Aminobenzamide)] | > 20 µM | > 20 µM | > 20 µM | > 20 µM | > 20 µM | > 20 µM | – | – | –
6 | O=C(NCCCCCCCCCCNC(=O)c1ccc2cc[nH]c2c1)c1ccc2cc[nH]c2c1 [Compound 24e, N,N′-(Decane-1,10-Diyl)Bis(1H-Indole-6-Carboxamide)] | > 20 µM | > 20 µM | > 20 µM | > 20 µM | > 20 µM | 5.3 ± 0.366 µM | – | >3.78 | –
7 | O=C(NCCCCCCCCCCNC(=O)c1ccco1)c1ccco1 [Compound 14e, N,N′-(Decane-1,10-Diyl)Bis(Furan-2-Carboxamide)] | 44.37 ± 0.29 µM | 19.8 ± 1.41 µM | > 100 µM | > 100 µM | 97.8 ± 1.55 µM | 6.33 ± 0.65 µM | – | 3.13 | –
8 | COc1cccc2c1C(=O)c1c(O)c3c(c(O)c1C2=O)C[C@@](O)(C(=O)CO)C[C@@H]3O[C@H]1C[C@H](N)[C@H](O)[C@H](C)O1 [DOX, doxorubicin, reference compound] | > 100 µM | 0.55 ± 0.03 µM | 11.4 ± 0.48 µM | 6 ± 0.07 µM | 28 ± 1.09 µM | – | – | – | 1.27 ± 0.13 µM
9 | O=C(NCCCCCCCCCCNC(=O)c1cc2ccccc2s1)c1cc2ccccc2s1 [Compound 22e, N,N′-(Decane-1,10-Diyl)Bis(Benzo[b]Thiophene-2-Carboxamide)] | > 20 µM | > 20 µM | > 20 µM | > 20 µM | > 20 µM | – | – | >1000 | –
10 | O=C(NCCCCCCCCCCNC(=O)c1ccccn1)c1ccccn1 [Compound 15e, N,N′-(Decane-1,10-Diyl)Dipicolinamide] | 23.08 ± 0.12 µM | 54.6 ± 5.92 µM | 37.7 ± 4.32 µM | 21.5 ± 1.47 µM | 26.3 ± 5.36 µM | 8.85 ± 0.45 µM | – | 6.18 | –
11 | O=C(/C=C/c1ccccc1)NCCCCCCCCCCCCNC(=O)/C=C/c1ccccc1 [Compound 9f, (2E,2′E)-N,N′-(Dodecane-1,12-Diyl)Bis(3-Phenylacrylamide)] | > 20 µM | > 20 µM | > 20 µM | > 20 µM | > 20 µM | 0.027 ± 0.002 µM | – | >740.74 | –
12 | COc1cc(/C=C/C(=O)NCCCCCCCCCCNC(=O)/C=C/c2cc(OC)c(O)c(OC)c2)cc(OC)c1O [Compound 28e, (2E,2′E)-N,N′-(Decane-1,10-Diyl)Bis(3-(4-Hydroxy-3,5-Dimethoxyphenyl)Acrylamide)] | > 20 µM | > 20 µM | > 20 µM | > 20 µM | > 20 µM | > 20 µM | – | – | –
13 | O=C(NCCCCCCCCCCNC(=O)c1cccnc1)c1cccnc1 [Compound 10e, N,N′-(Decane-1,10-Diyl)Dinicotinamide] | 2.94 ± 0.25 µM | 38.6 ± 2.48 µM | > 100 µM | > 100 µM | > 100 µM | – | – | 154.40 | –
14 | Cc1nc(C)c(CN(CCCCN(Cc2nc(C)c(C)nc2C)Cc2nc(C)c(C)nc2C)Cc2nc(C)c(C)nc2C)nc1C [Compound 6c, N^1,N^1,N^4,N^4-Tetrakis((3,5,6-Trimethylpyrazin-2-yl)Methyl)Butane-1,4-Diamine] | > 100 µM | > 100 µM | > 100 µM | > 100 µM | > 100 µM | > 100 µM | – | – | –
15 | COc1cc(C(=O)NCCCCCCCCCCNC(=O)c2cc(OC)c(OC)c(OC)c2)cc(OC)c1OC [Compound 34e, N,N′-(Decane-1,10-Diyl)Bis(3,4,5-Trimethoxybenzamide)] | > 20 µM | > 20 µM | > 20 µM | > 20 µM | > 20 µM | 5.85 ± 0.408 µM | – | >3.42 | –
16 | Cc1nc(C)c(CN(CCO)Cc2nc(C)c(C)nc2C)nc1C [Compound 6i, 2-(Bis((3,5,6-Trimethylpyrazin-2-yl)Methyl)Amino)Ethanol] | > 100 µM | > 100 µM | > 100 µM | > 100 µM | > 100 µM | > 100 µM | – | – | –
17 | O=C(/C=C/c1ccccc1)NCCOCCOCCOCCNC(=O)/C=C/c1ccccc1 [Compound 9k, (2E,2′E)-N,N′-(((Oxybis(Ethane-2,1-Diyl))Bis(Oxy))Bis(Ethane-2,1-Diyl))Bis(3-Phenylacrylamide)] | > 20 µM | > 20 µM | > 20 µM | > 20 µM | > 20 µM | 4.45 ± 0.208 µM | – | >4.50 | –
18 | O=C(/C=C/c1ccccc1)NCCOCCOCCNC(=O)/C=C/c1ccccc1 [Compound 9j, (2E,2′E)-N,N′-((Ethane-1,2-Diylbis(Oxy))Bis(Ethane-2,1-Diyl))Bis(3-Phenylacrylamide)] | > 20 µM | > 20 µM | > 20 µM | > 20 µM | > 20 µM | > 20 µM | – | – | –
19 | O=C(NCCCCCCCCCCNC(=O)c1ccc2ncccc2c1)c1ccc2ncccc2c1 [Compound 18e, N,N′-(Decane-1,10-Diyl)Bis(Quinoline-6-Carboxamide)] | > 20 µM | > 20 µM | > 20 µM | > 20 µM | > 20 µM | < 1 µM | 0.697 ± 0.021 µM | >28.69 | –
20 | COc1cc(OC)cc(C(=O)NCCCCCCCCCCNC(=O)c2cc(OC)cc(OC)c2)c1 [Compound 33e, N,N′-(Decane-1,10-Diyl)Bis(3,5-Dimethoxybenzamide)] | > 20 µM | > 20 µM | > 20 µM | > 20 µM | > 20 µM | 10.4 ± 0.949 µM | – | >1.92 | –
21 | O=C(/C=C/c1ccc(Cl)cc1)NCCCCCCCCCCNC(=O)/C=C/c1ccc(Cl)cc1 [Compound 25e, (2E,2′E)-N,N′-(Decane-1,10-Diyl)Bis(3-(4-Chlorophenyl)Acrylamide)] | > 20 µM | > 20 µM | > 20 µM | > 20 µM | > 20 µM | – | – | >357.14 | –
22 | O=C(/C=C/c1ccccc1)NCCCCCCCCNC(=O)/C=C/c1ccccc1 [Compound 9d, (2E,2′E)-N,N′-(Octane-1,8-Diyl)Bis(3-Phenylacrylamide)] | > 20 µM | > 20 µM | > 20 µM | > 20 µM | > 20 µM | 1.05 ± 0.091 µM | – | >18.98 | –
